Values of other authors in patent US20220047724A1, “NOVEL TRICARBOCYANINE-CYCLODEXTRIN(S) CONJUGATES AND USE THEREOF” (CYANAGEN S.R.L., priority 2014, published 2022).
Read-outs that look alike come from different tables or passages of the source.

Legend:
[1] = Sigma-Aldrich Product No. H-107, vendor data

For 2-hydroxypropyl-β-cyclodextrin [HβCD], the Toxicity (mice; mouse, in vivo) is listed as “non-toxic”, the Water solubility [1] is listed as 45 g/100 mL and the Toxicity (rabbits; rabbit, in vivo) is listed as “non-toxic”.

For 2-hydroxypropyl-γ-cyclodextrin [HγCD], the Toxicity (mice; mice) is listed as “non-toxic” and the Toxicity (rabbits; rabbits) is listed as “non-toxic”.
